Measurements from patent US10717734B2, “Indole and azaindole haloallylamine derivative inhibitors of lysyl oxidases and uses thereof” (PHARMAXIS LTD., priority 2016, dated 2020).
Counter-ions that a name gives are not always drawn.

Legend:
Format in all cases: biochemical
[1] = molecular target: Human recombinant SSAO/VAP-1 (Homo sapiens (Human), UniProt Q16853); assay: Human recombinant SSAO/VAP-1 amine oxidase inhibition; conditions: 30 min preincubation at 37° C., 600 μM benzylamine
Procedure: Method to Determine the Ability of Compounds of Formula I to Inhibit Human Recombinant SSAO/VAP-1
Human recombinant SSAO/VAP-1 amine oxidase activity was determined using the coupled colorimetric method as described for monoamine oxidase, copper-containing amine oxidases and related enzymes (Holt A. and Palcic M., A peroxidase-coupled continuous absorbance plate-reader assay for flavin monoamine oxidases, copper-containing amine oxidases and related enzymes. Nat Protoc 2006; 1: 2498-2505). Briefly, a cloned cDNA template corresponding to residues 34-763 of human SSAO/VAP-1, and incorporating a mouse Ig kappa (κ) signal sequence, N-terminal flag epitope tag and tobacco etch virus (TEV) cleavage site, was assembled in a mammalian expression vector (pLO-CMV) by Geneart AG. This vector containing human SSAO/VAP-1 residues was transfected into CHO-K1 glycosylation mutant cell line, Lec 8. A clone stably expressing human SSAO/VAP-1 was isolated and cultured in large scale. Active human SSAO/VAP-1 was purified and recovered using immunoaffinity chromatography. This was used as the source for SSAO/VAP-1 activity. A high-throughput colorimetric assay was developed using either 96 or 384 well format. Briefly, in a standard 96 well plate assay 50 μL of purified human SSAO/VAP-1 (0.25 μg/mL) in 0.1 M sodium phosphate buffer (pH 7.4) was added into each well. Test compounds were dissolved in DMSO and tested in a Concentration Response Curve (CRC) with 4-11 data points, typically in the micromolar or nanomolar range after incubation with human SSAO/VAP-1 for 30 min at 37° C. After 30 min incubation, 50 μL of the reaction mixture containing 600 μM benzylamine (Sigma Aldrich), 120 μM Amplex Red (Sigma Aldrich) and 1.5 U/mL horseradish peroxidase (Sigma Aldrich) prepared in 0.1 M sodium phosphate buffer (pH 7.4) were added to the corresponding well. The fluorescence unit (RFU) was read every 2.5 min for 30 min at 37° C. excitation 565 nm and emission 590 (Optima; BMG labtech). The slope of the kinetics for each well was calculated using MARS data analysis software (BMG labtech) and this value was used to deduce the IC50 value (Dotmatics).

[2] = molecular target: Human LOXL2 (Homo sapiens (Human), UniProt Q9Y4K0); assay: LOXL2 inhibition, peroxidase-coupled Amplex Red amine oxidase assay; conditions: 30 min preincubation at 37° C., putrescine substrate
Excerpt: (§1) Method to Determine the Ability of Compounds of the Invention to Inhibit LOX and LOXL1-4 from Different Sources
(§2) Lysyl oxidase (LOX) is an extracellular copper dependent enzyme which oxidizes peptidyl lysine and hydroxylysine residues in collagen and lysine residues in elastin to produce peptidyl alpha-aminoadipic-delta-semialdehydes. […] There are five LOX family members; these are LOX, LOXL1, LOXL2, LOXL3 and LOXL4. LOX and LOXL family members can be acquired as recombinant active proteins from commercial sources, or extracted from animal tissues like bovine aorta, tendons, pig skin; or prepared from cell cultures. The inhibitory effects of the compounds of the present invention were tested against the given LOX-LOXL preparation using a high-throughput coupled colorimetric method (Holt A. and Palcic M., A peroxidase-coupled continuous absorbance plate-reader assay for flavin monoamine oxidases, copper-containing amine oxidases and related enzymes. Nat. Protoc. 2006; 1: 2498-2505). The assay was developed using either 384 or 96 well format. Briefly, in a standard 384 well plate assay 25 μL of a dilution of any of the isoenzymes and orthologues in 1.2 M urea, 50 mM sodium borate buffer (pH 8.2) were added into each well in the presence of 1 μM mofegiline and 0.5 mM pargyline (to inhibit SSAO and MAO-B and MAO-A, respectively). Test compounds were dissolved in DMSO and tested in a Concentration Response Curve (CRC) with 11 data points, typically in the micromolar or nanomolar range after incubation with the enzyme for 30 min at 37° C. Twenty five μL of a reaction mixture containing twice the KM concentration of putrescine (Sigma Aldrich, e.g. 20 mM for LOX, or 10 mM for LOXL2 and LOXL3), 120 μM Amplex Red (Sigma Aldrich) and 1.5 U/mL horseradish peroxidase (Sigma Aldrich) prepared in 1.2 M urea, 50 mM sodium borate buffer (pH 8.2) were then added to the corresponding wells. The above volumes were doubled in the case of 96 wells plate. The fluorescence (RFU) was read every 2.5 min for 30 min at a range of temperatures from 37° to 45° C., excitation 565 nm and emission 590 (Optima; BMG labtech). The slope of the kinetics for each well was calculated using MARS data analysis software (BMG labtech) and this value was used to deduce the IC50 value (Dotmatics).

[3] = molecular target: Recombinant human MAO-B (Homo sapiens (Human), UniProt P27338); assay: Human recombinant MAO-B inhibition; conditions: benzylamine 100 μM
Procedure: Method to Determine the Ability of Compounds of Formula I to Inhibit Human Recombinant MAO-B
The specificity of the compounds of this invention was tested by determining their ability to inhibit MAO-B activities in vitro. Recombinant human MAO-B (0.06 mg/mL; Sigma Aldrich) was used as source of MAO-B enzyme activities. The assay was performed in a similar way as for human SSAO/VAP-1 (Example 36) except, the substrate benzylamine was used at 100 μM.

[4] = molecular target: Bovine LOX (Bos taurus (Bovine), UniProt P33072); assay: LOX inhibition, peroxidase-coupled Amplex Red amine oxidase assay; conditions: 30 min preincubation at 37° C., putrescine substrate
Excerpt: as §1
as §2, with “Test compounds were dissolved in DMSO and tested in a Concentration Response Curve (CRC) with 11 data points, typically in the micromolar or nanomolar range after incubation with the enzyme for 30 min at 37° C.” left out

Recombinant human MAO-B, sequence (P27338 whole entry): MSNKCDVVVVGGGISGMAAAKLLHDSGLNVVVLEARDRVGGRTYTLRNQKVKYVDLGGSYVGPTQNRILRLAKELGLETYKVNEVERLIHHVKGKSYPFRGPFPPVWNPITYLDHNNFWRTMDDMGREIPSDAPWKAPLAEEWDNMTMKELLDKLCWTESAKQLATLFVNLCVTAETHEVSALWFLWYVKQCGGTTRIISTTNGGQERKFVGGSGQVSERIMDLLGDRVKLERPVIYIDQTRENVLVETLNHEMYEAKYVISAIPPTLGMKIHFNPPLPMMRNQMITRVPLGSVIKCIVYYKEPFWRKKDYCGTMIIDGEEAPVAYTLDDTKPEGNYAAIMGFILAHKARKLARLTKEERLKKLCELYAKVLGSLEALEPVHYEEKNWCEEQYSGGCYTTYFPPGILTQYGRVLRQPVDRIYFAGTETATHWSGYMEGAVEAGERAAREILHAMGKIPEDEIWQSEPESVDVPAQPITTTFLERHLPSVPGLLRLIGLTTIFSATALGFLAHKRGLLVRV
Human LOXL2, sequence (Q9Y4K0 26-774): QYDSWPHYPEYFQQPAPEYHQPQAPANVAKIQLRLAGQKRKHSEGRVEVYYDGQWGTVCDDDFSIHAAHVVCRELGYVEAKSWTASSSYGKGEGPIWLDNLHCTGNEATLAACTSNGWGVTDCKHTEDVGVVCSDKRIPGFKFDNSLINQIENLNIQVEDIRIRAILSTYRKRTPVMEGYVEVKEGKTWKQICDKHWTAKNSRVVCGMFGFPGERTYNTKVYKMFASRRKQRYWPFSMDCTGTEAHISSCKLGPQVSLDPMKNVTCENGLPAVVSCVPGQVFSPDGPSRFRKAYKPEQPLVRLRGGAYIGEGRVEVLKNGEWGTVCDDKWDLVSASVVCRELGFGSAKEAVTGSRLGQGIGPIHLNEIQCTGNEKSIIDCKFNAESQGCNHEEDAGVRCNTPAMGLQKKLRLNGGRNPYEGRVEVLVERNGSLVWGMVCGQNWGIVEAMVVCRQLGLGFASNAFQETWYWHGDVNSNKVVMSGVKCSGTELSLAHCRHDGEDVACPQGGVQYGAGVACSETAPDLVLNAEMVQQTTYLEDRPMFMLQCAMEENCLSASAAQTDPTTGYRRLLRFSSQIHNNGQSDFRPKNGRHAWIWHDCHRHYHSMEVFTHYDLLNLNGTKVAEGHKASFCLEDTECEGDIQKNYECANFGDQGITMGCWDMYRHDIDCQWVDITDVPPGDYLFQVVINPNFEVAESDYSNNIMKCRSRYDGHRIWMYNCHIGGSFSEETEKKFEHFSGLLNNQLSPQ
Human recombinant SSAO/VAP-1, sequence (Q16853 34-763): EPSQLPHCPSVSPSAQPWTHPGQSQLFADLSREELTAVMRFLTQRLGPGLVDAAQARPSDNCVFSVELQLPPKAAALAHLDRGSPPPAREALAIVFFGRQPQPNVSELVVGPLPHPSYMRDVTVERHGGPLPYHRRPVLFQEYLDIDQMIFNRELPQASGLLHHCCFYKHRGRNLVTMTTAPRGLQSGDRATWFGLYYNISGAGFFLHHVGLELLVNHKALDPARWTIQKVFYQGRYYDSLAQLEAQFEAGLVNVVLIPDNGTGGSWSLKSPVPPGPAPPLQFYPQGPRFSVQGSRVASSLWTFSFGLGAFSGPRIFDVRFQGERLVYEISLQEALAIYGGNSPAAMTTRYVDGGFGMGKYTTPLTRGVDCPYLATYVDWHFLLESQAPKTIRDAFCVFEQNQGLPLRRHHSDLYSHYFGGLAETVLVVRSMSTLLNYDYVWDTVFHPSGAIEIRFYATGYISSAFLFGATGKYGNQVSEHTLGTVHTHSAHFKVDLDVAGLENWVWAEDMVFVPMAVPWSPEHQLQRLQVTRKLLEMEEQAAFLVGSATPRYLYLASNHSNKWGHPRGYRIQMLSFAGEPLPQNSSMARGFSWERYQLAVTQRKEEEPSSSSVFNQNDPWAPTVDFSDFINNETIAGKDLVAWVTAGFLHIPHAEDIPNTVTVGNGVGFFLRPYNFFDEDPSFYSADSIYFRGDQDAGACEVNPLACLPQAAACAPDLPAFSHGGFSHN
Bovine LOX, sequence (P33072 170-418): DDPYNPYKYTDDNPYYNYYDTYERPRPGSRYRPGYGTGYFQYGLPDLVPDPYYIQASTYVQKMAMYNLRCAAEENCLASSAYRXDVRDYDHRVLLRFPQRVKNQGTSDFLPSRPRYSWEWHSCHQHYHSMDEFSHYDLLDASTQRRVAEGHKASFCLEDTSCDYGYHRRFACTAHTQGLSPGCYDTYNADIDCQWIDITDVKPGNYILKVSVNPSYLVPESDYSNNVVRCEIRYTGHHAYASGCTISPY

SMILES | IC50 [1] | IC50 [2] | IC50 [3] | IC50 [4]
Cc1c(Cc2ccc(S(=O)(=O)N(C)C)cc2)c2cc(C(=O)O)ccc2n1C/C(F)=C/CN [Compound 1, (Z)-1-(4-amino-2-fluorobut-2-en-1-yl)-3-(4-(N,N-dimethylsulfamoyl)benzyl)-2-methyl-1H-indole-5-carboxylic acid hydrochloride] | > 3000 nM | < 300 nM | > 3000 nM | > 300 nM
COC(=O)c1ccc2c(c1)c(Cc1ccc(S(=O)(=O)N(C)C)cc1)c(C)n2C/C(F)=C/CN [Compound 2, Methyl (Z)-1-(4-amino-2-fluorobut-2-en-1-yl)-3-(4-(N,N-dimethylsulfamoyl)benzyl)-2-methyl-1H-indole-5-carboxylate hydrochloride] | > 3000 nM | < 300 nM | > 3000 nM | > 300 nM
Cc1c(Cc2ccc(S(=O)(=O)N(C)C)cc2)c2cc(C(=O)N(C)C)ccc2n1C/C(F)=C/CN [Compound 3, (Z)-1-(4-amino-2-fluorobut-2-en-1-yl)-3-(4-(N,N-dimethylsulfamoyl)benzyl)-N,N,2-trimethyl-1H-indole-5-carboxamide hydrochloride] | > 3000 nM | < 300 nM | > 3000 nM | > 300 nM
Cc1c(Cc2ccc(S(=O)(=O)N(C)C)cc2)c2cc(C(N)=O)ccc2n1C/C(F)=C/CN [Compound 4, (Z)-1-(4-amino-2-fluorobut-2-en-1-yl)-3-(4-(N,N-dimethylsulfamoyl)benzyl)-2-methyl-1H-indole-5-carboxamide hydrochloride] | > 3000 nM | < 300 nM | > 3000 nM | > 300 nM
CN(C)C(=O)c1c(Cc2ccc(S(=O)(=O)N(C)C)cc2)c2ccccc2n1C/C(F)=C/CN [Compound 5, (Z)-1-(4-amino-2-fluorobut-2-en-1-yl)-3-(4-(N,N-dimethylsulfamoyl)benzyl)-N,N-dimethyl-1H-indole-2-carboxamide hydrochloride] | > 3000 nM | < 300 nM | > 3000 nM | > 300 nM
Cc1c(Cc2ccc(S(=O)(=O)N(C)C)cc2)c2cc(S(=O)(=O)N(C)C)ccc2n1C/C(F)=C/CN [Compound 6, (Z)-1-(4-amino-2-fluorobut-2-en-1-yl)-3-(4-(N,N-dimethylsulfamoyl)benzyl)-N,N,2-trimethyl-1H-indole-5-sulfonamide hydrochloride] | > 3000 nM | < 300 nM | > 3000 nM | > 300 nM
Cc1c(Cc2cccc(S(=O)(=O)N(C)C)c2)c2cc(S(=O)(=O)N(C)C)ccc2n1C/C(F)=C/CN [Compound 7, (Z)-1-(4-amino-2-fluorobut-2-en-1-yl)-3-(3-(N,N-dimethylsulfamoyl)benzyl)-N,N,2-trimethyl-1H-indole-5-sulfonamide hydrochloride] | > 3000 nM | < 300 nM | > 3000 nM | > 300 nM
Cc1c(Cc2ccc(S(=O)(=O)N(C)C)cc2)c2ncccc2n1C/C(F)=C/CN [Compound 8, (Z)-4-((1-(4-amino-2-fluorobut-2-en-1-yl)-2-methyl-1H-pyrrolo[3,2-b]pyridin-3-yl)methyl)-N,N-dimethylbenzenesulfonamide dihydrochloride] | > 3000 nM | < 300 nM | > 3000 nM | > 300 nM
Cc1ccc2c(n1)c(Cc1ccc(S(=O)(=O)N(C)C)cc1)c(C)n2C/C(F)=C/CN [Compound 9, (Z)-4-((1-(4-amino-2-fluorobut-2-en-1-yl)-2,5-dimethyl-1H-pyrrolo[3,2-b]pyridin-3-yl)methyl)-N,N-dimethylbenzenesulfonamide dihydrochloride] | > 3000 nM | < 300 nM | > 3000 nM | > 300 nM
Cc1c(Cc2ccc(S(C)(=O)=O)cc2)c2ncccc2n1C/C(F)=C/CN [Compound 10, (Z)-3-fluoro-4-(2-methyl-3-(4-(methylsulfonyl)benzyl)-1H-pyrrolo[3,2-b]pyridin-1-yl)but-2-en-1-amine dihydrochloride] | > 3000 nM | < 300 nM | > 3000 nM | > 300 nM
Cc1cnc2c(Cc3ccc(S(=O)(=O)N(C)C)cc3)c(C)n(C/C(F)=C/CN)c2c1 [Compound 11, (Z)-4-((1-(4-amino-2-fluorobut-2-en-1-yl)-2,6-dimethyl-1H-pyrrolo[3,2-b]pyridin-3-yl)methyl)-N,N-dimethylbenzenesulfonamide dihydrochloride] | > 3000 nM | < 300 nM | > 3000 nM | > 300 nM
CCS(=O)(=O)c1ccc(Cc2c(C(C)C)n(C/C(F)=C/CN)c3cccnc23)cn1 [Compound 43, (Z)-4-(3-((6-(ethylsulfonyl)pyridin-3-yl)methyl)-2-isopropyl-1H-pyrrolo[3,2-b]pyridin-1-yl)-3-fluorobut-2-en-1-amine dihydrochloride] |  | < 300 nM |  | > 300 nM
CC(C)c1c(Cc2ccc(S(=O)(=O)C3CC3)nc2)c2ncccc2n1C/C(F)=C/CN [Compound 44, (Z)-4-(3-((6-(cyclopropylsulfonyl)pyridin-3-yl)methyl)-2-isopropyl-1H-pyrrolo[3,2-b]pyridin-1-yl)-3-fluorobut-2-en-1-amine dihydrochloride] |  | < 300 nM |  | > 300 nM
